We go through one compound from patent US20250361217A1, “FATTY ACID COMPOUNDS” (University of Pittsburgh - Of the Commonwealth System of …, priority 2022, published 2025).

Details of data set [1]: species or system mice. The settings on record: mouse, in vivo. The method, then:
Male C57BL/6J (12 weeks old) mice were used to measure the absorption and metabolism of FuFA. In this procedure, I1D3 (50 mg/kg), I 1U3 (50 mg/kg), I1U3-2M (50 mg/kg) and D31-palmitic acid (10 mg/kg) were administered simultaneously (cassette dosing) to single animal. Consequently, the relative pharmacokinetics of multiple compounds can be assessed rapidly with a small number of experimental animals. The compounds were injected either intraperitoneally (n=5) or by gavage (n=5). At 1, 2 and 4h after injection, a small incision on the tail vein was performed and microhematocrit capillary tubes (FisherBrand, #22-362566) were used to collect serial blood samples ([…] per collection). At 6h, mice were anesthetized, and blood was collected from the vena cava in a terminal blood draw. Blood samples were processed as described above to collect plasma. The pharmacokinetics (PK) of free FuFAs and D31-palmitic acid and their esters found in complex lipids were evaluated using 10 μl of plasma. Briefly, 20 μl of water were added to the […] of plasma and divided into 2 glass tubes. The sample in one tube was measured as is using GC-MS upon derivatization and the other sample was hydrolyzed before derivatization and quantification. […] For the total FA quantification, basic hydrolysis was performed using 500 μl of 1M KOH in MeOH and incubated for 1 h at 60° C. […]

For the next data set, the system named is LncRNA GM15441. Put plainly: Fluorescence RNA in-situ hybridization for GM15441. Type of data set: in vivo, mice. To be noted: livers of HFD-treated groups. As to the method:
Fluorescence RNA in-situ hybridization was performed on tissue sections using LNA ISH Optimization Kits (Qiagen, #339459) according to manufacturer's instructions. Briefly, the sectioning slides were deparaffinized and digested by proteinase K approach for 15 min at 37° C. U6, scrambled RNA, and GM15441 (LCD0173184) probes were hybridized at final concentration of 1 nM, 40 nM and 40 nM, respectively, followed by stringent washes of serial diluted SSC (Sigma, #S6639-1 L). After 30 min blocking, the slides were incubated with anti-DIG-POD (Roche, #11207733910) at 1:400 dilution for 60 min at RT according to manufacturer's instructions. TSA-plus Cyanine 3 (Akoya Bioscience, #NEL744001KT) substrate was added to the sections and incubated twice (5 min per incubation) to amplify the fluorescence signal. NucBlue Live ReadyProbes Reagent was applied to the slides at last to facilitate cell nuclei staining. Images were acquired on a fluorescent microscope (Leica, DMi8) using the Ocular Advanced Scientific Camera Control software (Digital Optics Limited).

The subject of another data set is liver mitochondria. Put plainly: Citrate synthase activity and Oroboros analysis of liver mitochondria flux. To be noted: for increase in citrate synthase activity (CSA) vs veh: 50 mg/kg, 11 weeks. Format: in vivo, mice. The text has this: A second cohort of mice was set up to confirm the effect of 11U3-2M on mitochondria and fatty acid (FA) β-oxidation using Oroboros analysis in the HFD but also in LFD models. Male C57BL/6J diet-induced obesity (C57BL/6J DIO, #380050) and male C57BL/6J diet-induced obesity control mice (C57BL/6J DIO Control, #380056) were purchased from Jackson Laboratory (Bar Harbor, ME, USA) at 15 weeks of age. Mice were continuously feeding either HFD or LFD during transport and upon reception. Mice were fed for 4 more weeks before starting the treatment. While continuing the HFD (n=8 per group) or LFD (n=8 per group), mice were treated with the same formulation as the first cohort using only 11U3-2M (50 mg/kg) or veh for 11 weeks. Mice were fasted for 5 h and received a single intraperitoneal injection of 50 μl of D31-palmitic acid (Cambridge Isotope, 3 μM, #dlm-215-1) in PEG400/Saline (2:1) and 1.5% of octanoic acid solution 2h before sacrifice in order to study FA metabolism. Blood and tissues were harvested and stored as described above.

For `CCCc1ccc(CCCCCCCCCC(C)(C)C(=O)O)o1` [11U3-2M, 2,2-Dimethyl-11-(5-propylfuran-2-yl)undecanoic acid], the absorption pathway entry in data set [1] is recorded as “absorbed through the hepatic portal vein”. Further, in data set [1] (po, 50 mg/kg), the “oral stability (half-lives) compared with natural FuFAs” value is on record as “longer half-lives”. Moreover, in the data set on LncRNA GM15441, the “GM15441 in-situ hybridization signal” value is “only detected in the nucleus of cells from 11U3-2M treated livers”. Also, in the data set on liver mitochondria (HFD mice), the “increase of flux after addition of glutamate, ratio to CSA, vs veh” value was determined as 34%; the “increase of flux normalized to CSA vs veh” value came out at 38.3%; the “increase in citrate synthase activity (CSA) vs veh” value was 29%. In addition, the “flux after addition of succinate (maximum respiration), normalized by CSA” value in the data set with liver mitochondria (LFD and HFD mice) was “didn't show any significant difference”. In addition, in the data set with liver mitochondria (LFD mice), the “increase of flux after addition of glutamate, ratio to CSA, vs veh” value is listed as 23%; the “increase of flux normalized to CSA vs veh” value worked out at 32.5%; the “increase in citrate synthase activity (CSA) vs veh” value is 27%. Moreover, in the data set with liver mitochondria (normalized to CSA), the “flux with pyruvate as the substrate” value is “No significant change”. For the same compound, the “mitochondria flux (Oroboros), not normalized” value in the data set on liver mitochondria (substrates palmitoylcarnitine and pyruvate) was “significantly higher flux”.
